Results from ChEMBL document CHEMBL1201861, “Genomics of Drug Sensitity in Cancer screening data, Wellcome Trust Sanger Institute”.

How the values were obtained:
NCI-H1436 = assay: cells; format: functional, cell-based; conditions: Homo sapiens;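 note: growth suppression of human NCI-H1436 cells, determined with a cell viability readout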
Description: SANGER: Inhibition of human NCI-H1436 cell growth in a cell viability assay.

LC4-1 = assay: cells; format: functional, cell-based; conditions: Homo sapiens;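 note: growth inhibition of LC4-1 cells, read out with a cell viability assay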
Description: SANGER: Inhibition of human LC4-1 cell growth in a cell viability assay.

GDM-1 = assay: cells; format: functional, cell-based; conditions: Homo sapiens;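 note: cell viability readout used to measure growth inhibition of human GDM-1 cells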
Description: SANGER: Inhibition of human GDM-1 cell growth in a cell viability assay.

G-401 = assay: cells; format: functional, cell-based, Homo sapiens; conditions: Homo sapiens, G-401
Description: SANGER: Inhibition of human G-401 cell growth in a cell viability assay.

HSC-4 = assay: cells; format: functional, cell-based, Homo sapiens; conditions: Homo sapiens, HSC-4;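 note: growth inhibition of human HSC-4 cells, read out with a cell viability assay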
Description: SANGER: Inhibition of human HSC-4 cell growth in a cell viability assay.

LB831-BLC = assay: cells; format: functional, cell-based, Homo sapiens; conditions: Homo sapiens, LB831-BLC;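 note: growth inhibition of LB831-BLC cells, read out with a cell viability assay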
Description: SANGER: Inhibition of human LB831-BLC cell growth in a cell viability assay.

KARPAS-422 = assay: cells; format: functional, cell-based; conditions: Homo sapiens
Description: SANGER: Inhibition of human KARPAS-422 cell growth in a cell viability assay.

BL-41 = assay: cells; format: functional, cell-based; conditions: Homo sapiens;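 note: growth inhibition of human BL-41 cells, read out with a cell viability assay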
Description: SANGER: Inhibition of human BL-41 cell growth in a cell viability assay.

TALL-1 = assay: cells; format: functional, cell-based; conditions: Homo sapiens;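 note: growth inhibition of cultured human TALL-1 cells, read out by a cell viability assay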
Description: SANGER: Inhibition of human TALL-1 cell growth in a cell viability assay.

CPC-N = assay: cells; format: functional, cell-based; conditions: Homo sapiens;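 note: growth inhibition of CPC-N cells, with a cell viability assay as the readout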
Description: SANGER: Inhibition of human CPC-N cell growth in a cell viability assay.

COR-L279 = assay: SANGER: Inhibition of human COR-L279 cell growth in a cell viability assay.; format: functional, cell-based
OPM-2 = assay: cells; format: functional, cell-based; conditions: Homo sapiens;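 note: growth of OPM-2 cells measured with a viability assay, IC50 for suppression of proliferation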
Description: SANGER: Inhibition of human OPM-2 cell growth in a cell viability assay.

LU-165 = assay: cells; format: functional, cell-based; conditions: Homo sapiens
Description: SANGER: Inhibition of human LU-165 cell growth in a cell viability assay.

LAMA-84 = assay: cells; format: functional, cell-based; conditions: Homo sapiens;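 note: growth inhibition of LAMA-84 cells, read out with a cell viability assay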
Description: SANGER: Inhibition of human LAMA-84 cell growth in a cell viability assay.

YT = assay: cells; format: functional, cell-based; conditions: Homo sapiens
Description: SANGER: Inhibition of human YT cell growth in a cell viability assay.

RD = assay: cells; format: functional, cell-based, Homo sapiens; conditions: Homo sapiens, RD
Description: SANGER: Inhibition of human RD cell growth in a cell viability assay.

CP66-MEL = assay: cells; format: functional, cell-based, Homo sapiens; conditions: Homo sapiens, CP66-MEL;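 note: growth inhibition of CP66-MEL cells determined in a cell viability assay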
Description: SANGER: Inhibition of human CP66-MEL cell growth in a cell viability assay.

23132-87 = assay: cells; format: functional, cell-based, Homo sapiens; conditions: Homo sapiens
Description: SANGER: Inhibition of human 23132-87 cell growth in a cell viability assay.

NCI-H1092 = assay: cells; format: functional, cell-based; conditions: Homo sapiens
Description: SANGER: Inhibition of human NCI-H1092 cell growth in a cell viability assay.

P31-FUJ = assay: cells; format: functional, cell-based; conditions: Homo sapiens;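 note: growth inhibition of P31-FUJ cells, read out with a viability assay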
Description: SANGER: Inhibition of human P31-FUJ cell growth in a cell viability assay.

NCI-H889 = assay: cells; format: functional, cell-based; conditions: Homo sapiens;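 note: cell growth inhibition of the cell line, read out with a viability assay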
Description: SANGER: Inhibition of human NCI-H889 cell growth in a cell viability assay.

CAL-12T = assay: cells; format: functional, cell-based, Homo sapiens; conditions: Homo sapiens, CAL-12T;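 note: growth inhibition of human CAL-12T cells, read out with a cell viability assay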
Description: SANGER: Inhibition of human CAL-12T cell growth in a cell viability assay.

MONO-MAC-6 = assay: cells; format: functional, cell-based; conditions: Homo sapiens;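 note: cell viability assay measuring growth inhibition of human MONO-MAC-6 cells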
Description: SANGER: Inhibition of human MONO-MAC-6 cell growth in a cell viability assay.

L-540 = assay: cells; format: functional, cell-based; conditions: Homo sapiens;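 note: growth inhibition of the human L-540 cell line, read out with a viability assay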
Description: SANGER: Inhibition of human L-540 cell growth in a cell viability assay.

TE-441-T = assay: cells; format: functional, cell-based; conditions: Homo sapiens
Description: SANGER: Inhibition of human TE-441-T cell growth in a cell viability assay.

SIMA = assay: cells; format: functional, cell-based, Homo sapiens; conditions: Homo sapiens, SIMA;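 note: growth inhibition of SIMA cells, measured with a cell viability readout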
Description: SANGER: Inhibition of human SIMA cell growth in a cell viability assay.

ASPC1 = assay: cells; format: functional, cell-based, Homo sapiens; conditions: Homo sapiens, ASPC1;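 note: growth inhibition of AsPC-1 cells, read out with a cell viability assay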
Description: SANGER: Inhibition of human AsPC-1 cell growth in a cell viability assay.

NCI-H1963 = assay: cells; format: functional, cell-based; conditions: Homo sapiens;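 note: cell growth inhibition of the human line, determined with a cell viability assay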
Description: SANGER: Inhibition of human NCI-H1963 cell growth in a cell viability assay.

UACC-812 = assay: cells; format: functional, cell-based; conditions: Homo sapiens
Description: SANGER: Inhibition of human UACC-812 cell growth in a cell viability assay.

NCI-H2196 = assay: cells; format: functional, cell-based; conditions: Homo sapiens;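 note: cell viability assay used as the readout of growth inhibition in NCI-H2196 cells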
Description: SANGER: Inhibition of human NCI-H2196 cell growth in a cell viability assay.

U-698-M = assay: cells; format: functional, cell-based; conditions: Homo sapiens
Description: SANGER: Inhibition of human U-698-M cell growth in a cell viability assay.

JVM-3 = assay: cells; format: functional, cell-based; conditions: Homo sapiens;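 note: growth inhibition of human JVM-3 cells, read out with a cell viability assay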
Description: SANGER: Inhibition of human JVM-3 cell growth in a cell viability assay.

T-24 = assay: cells; format: functional, cell-based, Homo sapiens; conditions: Homo sapiens, T-24;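 note: growth inhibition of T-24 cells, read out with a cell viability assay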
Description: SANGER: Inhibition of human T-24 cell growth in a cell viability assay.

NCI-H2405 = assay: cells; format: functional, cell-based, Homo sapiens; conditions: Homo sapiens, NCI-H2405;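 note: growth inhibition of the human cell line, read out with a cell viability assay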
Description: SANGER: Inhibition of human NCI-H2405 cell growth in a cell viability assay.

C2BBe1 = assay: cells; format: functional, cell-based, Homo sapiens; conditions: Homo sapiens, C2BBe1;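 note: growth inhibition of C2BBe1 cells, read out through a viability assay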
Description: SANGER: Inhibition of human C2BBe1 cell growth in a cell viability assay.

RL = assay: cells; format: functional, cell-based; conditions: Homo sapiens
Description: SANGER: Inhibition of human RL cell growth in a cell viability assay.

BL-70 = assay: SANGER: Inhibition of human BL-70 cell growth in a cell viability assay.; format: functional, cell-based
SF-539 = assay: cells; format: functional, cell-based, Homo sapiens; conditions: Homo sapiens, SF-539;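 note: Read-out is a cell viability assay, with IC50 reflecting inhibition of cell growth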
Description: SANGER: Inhibition of human SF539 cell growth in a cell viability assay.

NCI-H1993 = assay: cells; format: functional, cell-based, Homo sapiens; conditions: Homo sapiens, NCI-H1993;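 note: growth inhibition of the cancer cell line, assessed with a cell viability assay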
Description: SANGER: Inhibition of human NCI-H1993 cell growth in a cell viability assay.

NCI-H716 = assay: cells; format: functional, cell-based; conditions: Homo sapiens;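 note: growth inhibition of human NCI-H716 cells, measured by a cell viability assay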
Description: SANGER: Inhibition of human NCI-H716 cell growth in a cell viability assay.

SUP-T1 = assay: cells; format: functional, cell-based; conditions: Homo sapiens;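 note: growth inhibition of human SUP-T1 cells, read out as cell viability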
Description: SANGER: Inhibition of human SUP-T1 cell growth in a cell viability assay.

BC-3 = assay: cells; format: functional, cell-based; conditions: Homo sapiens;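 note: cell viability assay measuring growth inhibition of human BC-3 cells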
Description: SANGER: Inhibition of human BC-3 cell growth in a cell viability assay.

TE-9 = assay: cells; format: functional, cell-based, Homo sapiens; conditions: Homo sapiens, TE-9;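 note: cell growth inhibition, measured with a cell viability readout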
Description: SANGER: Inhibition of human TE-9 cell growth in a cell viability assay.

HT55 = assay: cells; format: functional, cell-based, Homo sapiens; conditions: Homo sapiens, HT55;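 note: cell viability readout measuring growth inhibition of human HT55 cells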
Description: SANGER: Inhibition of human HT55 cell growth in a cell viability assay.

IGR-1 = assay: cells; format: functional, cell-based, Homo sapiens; conditions: Homo sapiens, IGR-1;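 note: growth inhibition of human IGR-1 cells, read out with a cell viability assay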
Description: SANGER: Inhibition of human IGR-1 cell growth in a cell viability assay.

LXF-289 cell line = assay: cells; format: functional, cell-based, Homo sapiens; conditions: Homo sapiens, LXF-289
Description: SANGER: Inhibition of human LXF-289 cell growth in a cell viability assay.

A3-KAW = assay: cells; format: functional, cell-based; conditions: Homo sapiens;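 note: growth inhibition of human A3-KAW cells, read out with a cell viability assay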
Description: SANGER: Inhibition of human A3-KAW cell growth in a cell viability assay.

U-87 MG = assay: cells; format: functional, cell-based, U-87MG ATCC; conditions: Homo sapiens
Description: SANGER: Inhibition of human U-87-MG cell growth in a cell viability assay.

HCC 2998 = assay: cells; format: functional, cell-based, Homo sapiens; conditions: Homo sapiens, HCC 2998;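 note: growth inhibition of human HCC2998 cells, measured with a cell viability read-out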
Description: SANGER: Inhibition of human HCC2998 cell growth in a cell viability assay.

Measured: IC50

Cn1cncc1[C@@](N)(c1ccc(Cl)cc1)c1ccc2c(c1)c(-c1cccc(Cl)c1)cc(=O)n2C [TIPIFARNIB]
1.95 µM: BL-70
> 16 µM: NCI-H1436 | HSC-4 | KARPAS-422 | TALL-1 | OPM-2 | LU-165 | NCI-H1092 | P31-FUJ | NCI-H889 | TE-441-T | SIMA | ASPC1 | NCI-H1963 | UACC-812 | NCI-H2196 | JVM-3 | C2BBe1 | RL | SF-539 | NCI-H1993 | NCI-H716 | TE-9 | HT55 | U-87 MG
6.7 µM: 23132-87
4.13 µM: LXF-289 cell line
3.35 µM: MONO-MAC-6
4.83 µM: L-540
9.6 µM: NCI-H2405
7.95 µM: COR-L279
0.384 µM: HCC 2998
0.503 µM: G-401
0.787 µM: SUP-T1
3.99 µM: U-698-M
6.42 µM: LAMA-84
0.76 µM: CAL-12T
2.77 µM: BL-41
2.64 µM: LB831-BLC
9.82 µM: CP66-MEL
0.352 µM: GDM-1
14.8 µM: CPC-N
0.901 µM: A3-KAW
12 µM: RD
1.62 µM: IGR-1
1.65 µM: YT
2.98 µM: BC-3
13.9 µM: T-24
2.55 µM: LC4-1

Cc1ccc(Nc2nccc(N(C)c3ccc4c(C)n(C)nc4c3)n2)cc1S(N)(=O)=O [PAZOPANIB]
1.46 µM: G-401
> 8 µM: NCI-H1436 | LC4-1 | HSC-4 | KARPAS-422 | BL-41 | TALL-1 | CPC-N | COR-L279 | OPM-2 | LU-165 | LAMA-84 | YT | RD | CP66-MEL | 23132-87 | NCI-H1092 | P31-FUJ | NCI-H889 | CAL-12T | MONO-MAC-6 | L-540 | TE-441-T | SIMA | ASPC1 | NCI-H1963 | UACC-812 | NCI-H2196 | U-698-M | JVM-3 | T-24 | NCI-H2405 | C2BBe1 | RL | BL-70 | SF-539 | NCI-H1993 | SUP-T1 | BC-3 | TE-9 | IGR-1 | LXF-289 cell line | A3-KAW | U-87 MG | HCC 2998
0.988 µM: HT55
2.55 µM: LB831-BLC
0.104 µM: GDM-1
2.32 µM: NCI-H716

C[C@]1(O)C[C@@H](c2nc(-c3ccc4ccc(-c5ccccc5)nc4c3)c3c(N)nccn32)C1 [LINSITINIB]
1.07 µM: SIMA
0.883 µM: HCC 2998
0.182 µM: G-401
> 2.56 µM: NCI-H1436 | LC4-1 | HSC-4 | LB831-BLC | KARPAS-422 | BL-41 | TALL-1 | CPC-N | COR-L279 | LU-165 | LAMA-84 | YT | 23132-87 | NCI-H1092 | P31-FUJ | NCI-H889 | CAL-12T | MONO-MAC-6 | L-540 | TE-441-T | ASPC1 | NCI-H1963 | UACC-812 | NCI-H2196 | U-698-M | JVM-3 | T-24 | NCI-H2405 | C2BBe1 | RL | BL-70 | SF-539 | NCI-H1993 | NCI-H716 | SUP-T1 | BC-3 | TE-9 | HT55 | IGR-1 | LXF-289 cell line | A3-KAW | U-87 MG
0.137 µM: GDM-1
2.29 µM: CP66-MEL
2.1 µM: OPM-2
1.26 µM: RD
